Source: ChEMBL document CHEMBL5500358, “Identification of CH2-linked quinolone-aminopyrimidine hybrids as potent anti-MRSA agents: Low resistance potential and lack of cross-resistance with fluoroquinolone antibiotics” (Eur J Med Chem, 2024)
≈ marks a conversion by molar mass, not a printed value.

Columns and labels:
Staphylococcus aureus [1] = experiment: Antibacterial activity against fluoroquinolone-sensitive methicillin resistant Staphylococcus aureus USA500 incubated for 16 to 18 hrs by absorbance based analysis; assay type: functional; details: time 16-18 hrs
Staphylococcus aureus [2] = experiment: Antibacterial activity against fluoroquinolone-sensitive methicillin resistant Staphylococcus aureus ATCC 33591 incubated for 16 to 18 hrs by absorbance based analysis; assay type: functional; details: time 16-18 hrs
Escherichia coli = experiment: Antibacterial activity against Escherichia coli ATCC 25922 incubated for 16 to 18 hrs by absorbance based analysis; assay type: functional; details: time 16-18 hrs
Staphylococcus aureus [3] = experiment: Antibacterial activity against fluoroquinolone/methicillin resistant Staphylococcus aureus Mu50 incubated for 16 to 18 hrs by absorbance based analysis; assay type: functional; details: time 16-18 hrs
[4] = Metabolic stability in human liver microsomes assessed as drug elimination rate constant at 1 uM by LC-MS/MS analysis; assay type: ADME, Microsome
[5] = Metabolic stability in human liver microsomes assessed as elimination half life at 1 uM by LC-MS/MS analysis; assay type: ADME, Microsome; details: read-out: beta t1/2
[6] = Metabolic stability in human liver microsomes assessed as microsomal intrinsic clearance at 1 uM by LC-MS/MS analysis; assay type: ADME, Microsome; details: read-out: CLH
[7] = Metabolic stability in human liver microsomes assessed as liver intrinsic clearance at 1 uM by LC-MS/MS analysis; assay type: ADME, Microsome; details: read-out: CLH
[8] = Metabolic stability in human liver microsomes assessed as compound remaining at 1 uM measured after 60 mins by LC-MS/MS analysis; assay type: ADME, Microsome; details: read-out: Stability
[9] = Metabolic stability in rat liver microsomes assessed as drug elimination rate constant at 1 uM by LC-MS/MS analysis; assay type: ADME, Microsome
[10] = Metabolic stability in rat liver microsomes assessed as elimination half life at 1 uM by LC-MS/MS analysis; assay type: ADME, Microsome; details: read-out: beta t1/2
[11] = Metabolic stability in rat liver microsomes assessed as microsomal intrinsic clearance at 1 uM by LC-MS/MS analysis; assay type: ADME, Microsome; details: read-out: CLH
[12] = Metabolic stability in rat liver microsomes assessed as liver intrinsic clearance at 1 uM by LC-MS/MS analysis; assay type: ADME, Microsome; details: read-out: CLH
[13] = Metabolic stability in rat liver microsomes assessed as compound remaining at 1 uM measured after 60 mins by LC-MS/MS analysis; assay type: ADME, Microsome; details: read-out: Stability
A549 = experiment: Cytotoxicity against human A549 cells assessed as reduction in cell viability at 100 uM incubated for 24 hrs by CCK-8 assay; assay type: toxicity, cell-based; details: a549, 24 h
HEK293 = experiment: Cytotoxicity against HEK293 cells assessed as reduction in cell viability at 100 uM incubated for 24 hrs by CCK-8 assay; assay type: toxicity, cell-based; details: human, hek293, 24 h
[14] = target: Voltage-gated inwardly rectifying potassium channel KCNH2 (Homo sapiens, UniProt Q12809); experiment: Inhibition of hERG expressed in CHO cells at -80 mV holding potential by manual patch clamp method; assay type: toxicity, cell-based
Staphylococcus aureus [15] = experiment: Antibacterial activity against methicillin resistant Staphylococcus aureus ATCC 33591 measured after 15 passages; assay type: functional
[16] = Acute toxicity in ICR mouse assessed as animal death at 400 to 2000 mg/kg, po administered as single dose via oral gavage and measured for 8 days; assay type: organism-based; details: in vivo, 192 h, dose 400-2000 mg/kg, time 8 day
[17] = Acute toxicity in ICR mouse assessed as abnormal behaviors at 400 to 2000 mg/kg, po administered as single dose via oral gavage and measured for 8 days; assay type: organism-based; details: in vivo, 192 h, dose 400-2000 mg/kg, time 8 day
[18] = Acute toxicity in male ICR mouse assessed as effect on body weight at 400 to 2000 mg/kg, po administered as single dose via oral gavage and measured for 8 days; assay type: organism-based; details: in vivo, 192 h, dose 400-2000 mg/kg, time 8 day
[19] = Acute toxicity in female ICR mouse assessed as effect on body weight at 400 to 2000 mg/kg, po administered as single dose via oral gavage and measured for 8 days; assay type: organism-based; details: in vivo, 192 h, dose 400-2000 mg/kg, time 8 day
[20] = Acute toxicity in ICR mouse assessed as effect on food intake at 400 to 2000 mg/kg, po administered as single dose via oral gavage and measured for 8 days; assay type: organism-based; details: in vivo, 192 h, dose 400-2000 mg/kg, time 8 day
[21] = Acute toxicity in ICR mouse assessed as heart damage at 400 to 2000 mg/kg, po administered as single dose via oral gavage and measured on day 9; assay type: organism-based; details: in vivo, 216 h, dose 400-2000 mg/kg, time 9 day
[22] = Acute toxicity in ICR mouse assessed as brain damage at 400 to 2000 mg/kg, po administered as single dose via oral gavage and measured on day 9; assay type: organism-based; details: in vivo, 216 h, dose 400-2000 mg/kg, time 9 day
[23] = Acute toxicity in ICR mouse assessed as liver damage at 400 to 2000 mg/kg, po administered as single dose via oral gavage and measured on day 9; assay type: organism-based; details: in vivo, 216 h, dose 400-2000 mg/kg, time 9 day
[24] = Acute toxicity in ICR mouse assessed as spleen damage at 400 to 2000 mg/kg, po administered as single dose via oral gavage and measured on day 9; assay type: organism-based; details: in vivo, 216 h, dose 400-2000 mg/kg, time 9 day
[25] = Acute toxicity in ICR mouse assessed as lung damage at 400 to 2000 mg/kg, po administered as single dose via oral gavage and measured on day 9; assay type: organism-based; details: in vivo, 216 h, dose 400-2000 mg/kg, time 9 day
[26] = Acute toxicity in ICR mouse assessed as kidney damage at 400 to 2000 mg/kg, po administered as single dose via oral gavage and measured on day 9; assay type: organism-based; details: in vivo, 216 h, dose 400-2000 mg/kg, time 9 day
[27] = Initial drug concentration in male Sprague-Dawley rat at 10 mg/kg, iv administered as single dose and measured upto 24 hrs by LC-MS/MS analysis; assay type: ADME, organism-based; details: in vivo
[28] = Half life in male Sprague-Dawley rat at 10 mg/kg, iv administered as single dose and measured upto 24 hrs by LC-MS/MS analysis; assay type: ADME, organism-based; details: in vivo
[29] = Clearance in male Sprague-Dawley rat at 10 mg/kg, iv administered as single dose and measured upto 24 hrs by LC-MS/MS analysis; assay type: ADME, organism-based; details: in vivo
[30] = AUC (0 to t) in male Sprague-Dawley rat at 10 mg/kg, iv administered as single dose and measured upto 24 hrs by LC-MS/MS analysis; assay type: ADME, organism-based; details: in vivo
[31] = AUC (0 to infinity) in male Sprague-Dawley rat at 10 mg/kg, iv administered as single dose and measured upto 24 hrs by LC-MS/MS analysis; assay type: ADME, organism-based; details: in vivo
[32] = MRT (0 to t) in male Sprague-Dawley rat at 10 mg/kg, iv administered as single dose and measured upto 24 hrs by LC-MS/MS analysis; assay type: ADME, organism-based; details: in vivo
[33] = MRT (0 to infinity) in male Sprague-Dawley rat at 10 mg/kg, iv administered as single dose and measured upto 24 hrs by LC-MS/MS analysis; assay type: ADME, organism-based; details: in vivo
[34] = Cmax in male Sprague-Dawley rat at 20 mg/kg, po administered as single dose and measured upto 24 hrs by LC-MS/MS analysis; assay type: ADME, organism-based; details: in vivo
[35] = Half life in male Sprague-Dawley rat at 20 mg/kg, po administered as single dose and measured upto 24 hrs by LC-MS/MS analysis; assay type: ADME, organism-based; details: in vivo
[36] = Tmax in male Sprague-Dawley rat at 20 mg/kg, po administered as single dose and measured upto 24 hrs by LC-MS/MS analysis; assay type: ADME, organism-based; details: in vivo
[37] = AUC (0 to t) in male Sprague-Dawley rat at 20 mg/kg, po administered as single dose and measured upto 24 hrs by LC-MS/MS analysis; assay type: ADME, organism-based; details: in vivo
[38] = AUC (0 to infinity) in male Sprague-Dawley rat at 20 mg/kg, po administered as single dose and measured upto 24 hrs by LC-MS/MS analysis; assay type: ADME, organism-based; details: in vivo
[39] = MRT (0 to t) in male Sprague-Dawley rat at 20 mg/kg, po administered as single dose and measured upto 24 hrs by LC-MS/MS analysis; assay type: ADME, organism-based; details: in vivo
[40] = MRT (0 to infinity) in male Sprague-Dawley rat at 20 mg/kg, po administered as single dose and measured upto 24 hrs by LC-MS/MS analysis; assay type: ADME, organism-based; details: in vivo
[41] = Oral bioavailability in male Sprague-Dawley rat at 20 mg/kg administered as single dose and measured upto 24 hrs by LC-MS/MS analysis; assay type: ADME, organism-based; details: in vivo

Voltage-gated inwardly rectifying potassium channel KCNH2, sequence (Q12809 whole entry): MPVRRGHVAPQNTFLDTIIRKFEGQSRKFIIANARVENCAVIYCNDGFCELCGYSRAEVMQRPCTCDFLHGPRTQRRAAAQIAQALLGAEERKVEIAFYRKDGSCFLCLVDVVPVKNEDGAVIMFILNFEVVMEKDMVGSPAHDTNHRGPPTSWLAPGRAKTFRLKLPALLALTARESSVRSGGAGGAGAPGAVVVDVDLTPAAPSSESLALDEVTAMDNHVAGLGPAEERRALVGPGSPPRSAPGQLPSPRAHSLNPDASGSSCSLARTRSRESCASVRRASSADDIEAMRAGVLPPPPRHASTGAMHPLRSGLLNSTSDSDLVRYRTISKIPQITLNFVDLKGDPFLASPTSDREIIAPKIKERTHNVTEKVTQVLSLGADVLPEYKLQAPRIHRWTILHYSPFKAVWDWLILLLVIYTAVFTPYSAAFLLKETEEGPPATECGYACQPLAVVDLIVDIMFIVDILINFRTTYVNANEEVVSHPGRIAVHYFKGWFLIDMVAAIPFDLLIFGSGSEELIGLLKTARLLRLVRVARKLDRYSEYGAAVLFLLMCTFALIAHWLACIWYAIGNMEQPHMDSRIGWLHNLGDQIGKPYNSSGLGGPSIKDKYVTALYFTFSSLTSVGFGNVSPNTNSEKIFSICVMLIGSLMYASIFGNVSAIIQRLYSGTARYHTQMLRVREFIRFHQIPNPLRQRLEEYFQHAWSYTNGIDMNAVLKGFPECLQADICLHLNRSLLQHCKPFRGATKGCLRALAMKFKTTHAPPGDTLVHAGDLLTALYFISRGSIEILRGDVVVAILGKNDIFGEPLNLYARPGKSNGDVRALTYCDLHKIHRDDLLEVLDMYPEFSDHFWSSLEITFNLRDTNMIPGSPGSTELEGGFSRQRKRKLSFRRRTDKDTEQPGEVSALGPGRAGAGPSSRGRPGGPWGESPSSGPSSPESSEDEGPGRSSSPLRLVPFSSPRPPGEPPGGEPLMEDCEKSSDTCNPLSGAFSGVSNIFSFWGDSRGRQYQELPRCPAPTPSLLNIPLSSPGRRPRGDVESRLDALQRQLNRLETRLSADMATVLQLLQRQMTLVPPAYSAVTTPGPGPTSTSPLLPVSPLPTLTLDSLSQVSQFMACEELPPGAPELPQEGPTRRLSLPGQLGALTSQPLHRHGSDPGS

O=C(O)c1cn(C2CC2)c2cc(Nc3nccc(Cc4ccc(F)cc4F)n3)ccc2c1=O
MIC (Staphylococcus aureus [1]): 0.39 µg/mL (≈ 0.87 µM)
MIC (Staphylococcus aureus [2]): 0.25 µg/mL (≈ 0.558 µM)
MIC (Escherichia coli): > 64 µg/mL
MIC (Staphylococcus aureus [3]): 0.39 µg/mL (≈ 0.87 µM)
k el at 1 µM [4]: 0.00025 s⁻¹
half-life at 1 µM [5]: 0.75 h
microsomal CLint at 1 µM [6]: 30.8 µL/min/mg
CLint scaled at 1 µM [7]: 29.1 mL/min/kg
remaining at 1 h, 1 µM [8]: 40.9%
k el at 1 µM [9]: 0.000283 s⁻¹
half-life at 1 µM [10]: 0.683 h
microsomal CLint at 1 µM [11]: 33.8 µL/min/mg
CLint scaled at 1 µM [12]: 60.9 mL/min/kg
remaining at 1 h, 1 µM [13]: 35.7%
Activity (A549): Non-Toxic
Activity (HEK293): Non-Toxic
IC50 [14]: > 40 µM
MIC (Staphylococcus aureus [15]): 0.25 µg/mL (≈ 0.558 µM)
Activity [16]: Non-Toxic
Activity [17]: Non-Toxic
Activity [18]: Non-Toxic
Activity [19]: Non-Toxic
Activity [20]: Non-Toxic
Activity [21]: Non-Toxic
Activity [22]: Non-Toxic
Activity [23]: Non-Toxic
Activity [24]: Non-Toxic
Activity [25]: Non-Toxic
Activity [26]: Non-Toxic
C0 at 24 h [27]: 11800 ng/mL
half-life [28]: 4.23 h
clearance [29]: 18.5 mL/min/kg
AUC(0-t) at 24 h [30]: 9060 ng·h/mL
AUC(0-inf) [31]: 9100 ng·h/mL
MRT last at 24 h [32]: 1.01 h
MRT inf [33]: 1.2 h
Cmax [34]: 31 ng/mL
half-life [35]: 2.16 h
Tmax [36]: 2.67 h
AUC(0-t) at 24 h [37]: 162 ng·h/mL
AUC(0-inf) [38]: 171 ng·h/mL
MRT last at 24 h [39]: 3.51 h
MRT inf [40]: 4.2 h
bioavailability [41]: 0.9%
